One data set addresses T1, CTSB protease (Homo sapiens, UniProt P07858).
T1 construct: purchased Sino Biological Inc. 10483-H08H-10
Description: CTSB protease activity inhibition in vitro (z-Arg-Arg-AMC substrate). It counts as biochemical. The following applies: for inhibition at 1000 µM / Inhibition rate (%) of the CTSB protease activity: 1 mM of each compound; for inhibition at 1000 µM: read-out: Inhibition rate (%) of the CTSB protease activity.

Data set [1] addresses T2, C. elegans CPR-4 protease (Caenorhabditis elegans, UniProt P43508).
T2 construct: a cpr-4 cDNA fragment encoding residues 16-336 was PCR amplified from the full-length cpr-4 cDNA clone; GST (N, cleaved yes); made in house; host or cells: Escherichia coli BL21(DE3)
T2 sequence (P43508 81-335): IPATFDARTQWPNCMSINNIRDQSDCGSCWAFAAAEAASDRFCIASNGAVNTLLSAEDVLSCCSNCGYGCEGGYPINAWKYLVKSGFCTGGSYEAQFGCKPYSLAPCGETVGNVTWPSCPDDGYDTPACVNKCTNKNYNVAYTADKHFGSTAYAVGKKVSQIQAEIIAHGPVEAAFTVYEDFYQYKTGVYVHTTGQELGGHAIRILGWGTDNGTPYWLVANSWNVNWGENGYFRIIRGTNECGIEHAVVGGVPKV
Description: CPR-4 protease activity inhibition in vitro (z-Arg-Arg-AMC substrate). The data set is classed as biochemical. The following applies: 1 mM of each compound; read-out: Inhibition rate(%) of the C. elegans CPR-4 protease activity.

In data set [2] the test system is Phsp-4::gfp stress-response reporter. Description: Phsp-4::gfp stress response assay in unexposed posterior region after localized UV irradiation (LUI). It counts as in vivo, C. elegans. The following applies: zcls4 L1 larvae treated with 1 mM compound for 48 h (FIG. 17).
The test system of data set [3] is germ cell corpses in ced-1(e1735) animals. Description: Germ cell corpse assay with recombinant proteins in liquid culture. It counts as in vivo, C. elegans. The following applies: 2.8 μM tCPR-4 proteins or 0.27 μM rhCTSB, L4 larvae, 48 hours. As for the experimental part:
Growing C. elegans animals in 96-well plates. HB101 bacteria were mixed with 100 μL conditioned medium (0.1 μg/μL) or 100 μL S-Medium containing 2.8 μM of recombinant tCPR-4 proteins (wild-type or mutant) or 0.27 μM recombinant human cathepsin B in a 96-well plate. Approximately 60 L4 larvae were transferred into each well of the plate. After being cultured in liquid media for 48 hours, these animals were scored for the numbers of germ cell corpses and mitotic nuclei. Quantification of germ cell corpses. L4 animals were cultured in liquid media in a 96-well plate as described above. After 48 hours, they were transferred to NGM plates and allowed to recover for 1 hour at 20° C. The animals were then anesthetized by 20 mM NaN3, mounted onto 2% agar pad, and scored under Nomarski optics. For transgenic animals expressing CPR-4 in the pharynx, L4 animals were grown on NGM plates for 24 hours at 20° C. before they were scored for germ cell corpses. Only the posterior arms of intact gonads were scored. Blind tests were carried out in all germ cell corpse quantification experiments.

The next data set relates to N2 animals. Description: Embryonic lethality assay in liquid media with purified proteins. The data set is classed as in vivo, C. elegans. The following applies: 2.8 μM tCPR-4 proteins or 0.27 μM rhCTSB, 48 hours. As for the experimental part: Embryonic lethality and larval arrest assays. For embryonic lethality assays caused by direct irradiation, after irradiated with 100 J/m^2 UV or 500 Gy gamma ray, gravid adults were placed on NGM plates to lay eggs for 4 hours at 25° C. and then removed from the plates. For embryonic lethality assays in liquid media, L4 larvae were cultured in conditioned medium or S-Medium containing the purified proteins at 20° C. for 48 hours, transferred to fresh NGM plates from the liquid media, and allowed to lay eggs for 4 hours at 25° C., before the adult animals were removed. For embryonic lethality assays in transgenic animals expressing CPR-4 in the pharynx, transgenic gravid adults at 24 hours post L4 were placed on NGM plates to lay eggs for 4 hours at 25° C. and then removed from the plates.

Data set [4] is described as follows: Protease activity of recombinant proteins in vitro. The data set is classed as biochemical. The following applies: 2.8 μM tCPR-4 proteins, 0.27 μM rhCTSB; z-Arg-Arg-AMC. As for the experimental part: Measurement of protease activity in vitro. The CPR-4 enzymatic assays were performed following the method described previously with some modifications. The cathepsin B-specific fluorogenic substrate, Z-Arg-Arg-7-amido-4-methylcoumarin hydrochloride (z-Arg-Arg-AMC; Peptanova, catalog number 88937-61-5), was dissolved in 2×reaction buffer, containing 25 mM Tris-HCl (pH 8.0), 100 mM NaCl, 10% (v/v) Glycerol, 0.8 mM Sodium Acetate (pH6.0), and 8 mM EDTA. For the assays, 10 μL of proteins (100 ng/μL) or 10 μL of conditioned medium (100 ng/μL) were incubated with 10 μL of 20 μM z-Arg-Arg-AMC at 25° C. for 10 minutes before measuring the […]. Enzymatic activities were determined as the mean velocities at 25° C. in a dual luminescence fluorometer EnVision (Perkin-Elmer) at an excitation wavelength of 380 nm and an emission wavelength of 460 nm, and expressed as relative intensity in kilo relative fluorescence unit (kRFU). Recombinant human cathepsin B (rhCTSB; Sino Biological Inc., catalog number 10483-H08H-10) was dissolved in a buffer recommended by the manufacturer [25 mM Tris-HCl (pH 8.0), 100 mM NaCl, 10% (v/v) glycerol, 5 mM DTT, and 0.1% Triton-X]. The buffer control unique to the CPR-4 proteins or the rhCTSB protein, or the sham-irradiated conditioned medium, was also measured using the same procedures. S-Medium was used in each experiment as the background control.

Setting [5] is: read-out: IC50 in inhibiting the CTSB protease activity.
The mark [6] stands for this setting: read-out: IC50 in inhibiting CTSB.

Read-outs that look alike come from different tables or passages of the source.

By inhibition is commonly meant the relative decrease from the control value, in per cent. As usually defined, the IC50 is the concentration that inhibits the measured activity by half. In the case of `O=c1cc(-c2ccccc2)oc2cc(O)c(O)c(O)c12` [Baicalein, 5,6,7-Trihydroxy-2-phenyl-chromen-4-one], the inhibition at 1000 µM on CTSB protease was 65 to 85%; in data set [1], 41.5%. Further, the 50% inhibitory concentration (IC50) on CTSB protease (setting [5]) was 870 nM.
In the case of `CC(C)C[C@H](NC(=O)[C@@H]1O[C@H]1C(=O)O)C(=O)NCCCCNC(=N)N` [E64, N—[N-(L-3-Trans-carboxirane-2-carbonyl)-L-leucyl]-agmatine, reference compound], the inhibition at 1000 µM at CTSB protease was 92.1%; in data set [1], 89.6%. Besides, the IC50 at CTSB protease (setting [6]) is not above 20 nM; on CTSB protease (setting [5]) it was 20 nM.
`O=c1c(O)c(-c2ccc(O)c(O)c2)oc2cc(O)cc(O)c12` [Quercetin, 2-(3,4-dihydroxyphenyl)-3,5,7-trihydroxy-4H-chromen-4-one]: at CTSB protease, the “Inhibition of the activity of CTSB (in words)” value is recorded as “inhibit the activity of CTSB”, the “Inhibition rate (%) of the CTSB protease activity” value was 82.42% and the inhibition at 1000 µM fell in the range of 65 to 85%. In addition, the IC50 on CTSB protease (setting [5]) worked out at 1870 nM. Also, the inhibition at 1000 µM in data set [1] is 80.7%.
For `CCCNC(=O)[C@H]1O[C@@H]1C(=O)N[C@H](C(=O)N1CCC[C@H]1C(=O)OC)[C@@H](C)CC` [CA074Me, CA074 methyl ester, reference compound], the “Inhibition rate (%) of the CTSB protease activity” value on CTSB protease is listed as “best inhibitory effects”. In addition, at CTSB protease, the inhibition at 1000 µM was determined as 88.1%. For the same molecule, the IC50 at CTSB protease (setting [6]) is not above 20 nM; on CTSB protease (setting [5]), less than 10 nM. In data set [2], the “Bystander Phsp-4::gfp response in posterior unexposed regions after LUI at the head” value is on record as “abolished the bystander Phsp-4::gfp response”.

B1: tCPR-4(N301A): tCPR-4 with mutation N301A changing a non-catalytic residue (protein, UniProt P43508 81-335, looked up, variant N301A)
Cathepsin B-like cysteine …: IPATFDARTQWPNCMSINNIRDQSDCGSCWAFAAAEAASDRFCIASNGAVNTLLSAEDVLSCCSNCGYGCEGGYPINAWKYLVKSGFCTGGSYEAQFGCKPYSLAPCGETVGNVTWPSCPDDGYDTPACVNKCTNKNYNVAYTADKHFGSTAYAVGKKVSQIQAEIIAHGPVEAAFTVYEDFYQYKTGVYVHTTGQELGGHAIRILGWGTDNGTPYWLVAASWNVNWGENGYFRIIRGTNECGIEHAVVGGVPKV
B1: in data set [3], the “Germ cell corpses in ced-1(e1735) animals” value (from here on “Germ cell corpses”) is reported as “reduced germ cell corpses”. Besides, the “Embryonic lethality of treated N2 animals” value (from here on “Embryonic lethality”) in the data set on N2 animals is recorded as “increased embryonic lethality”. Besides, the “Protease activity of recombinant protein” value in data set [4] is on record as “did not affect tCPR-4 protease activity”.

B2: tCPR-4(H281A) (protein, UniProt P43508 81-335, looked up, variant H281A)
Cathepsin B-like cysteine …: IPATFDARTQWPNCMSINNIRDQSDCGSCWAFAAAEAASDRFCIASNGAVNTLLSAEDVLSCCSNCGYGCEGGYPINAWKYLVKSGFCTGGSYEAQFGCKPYSLAPCGETVGNVTWPSCPDDGYDTPACVNKCTNKNYNVAYTADKHFGSTAYAVGKKVSQIQAEIIAHGPVEAAFTVYEDFYQYKTGVYVHTTGQELGGAAIRILGWGTDNGTPYWLVANSWNVNWGENGYFRIIRGTNECGIEHAVVGGVPKV
On to B2, for which the “Germ cell corpses” value in data set [3] is “failed to do so”. Further, the “Embryonic lethality” value in the data set with N2 animals is “failed to do so”. Also, the “Protease activity of recombinant protein” value in data set [4] is on record as “abolished the protease activity”.

B3: tCPR-4(C109A): tCPR-4 with mutation of the conserved catalytic Cysteine residue (protein, UniProt P43508 81-335, looked up, variant C109A)
Cathepsin B-like cysteine …: IPATFDARTQWPNCMSINNIRDQSDCGSAWAFAAAEAASDRFCIASNGAVNTLLSAEDVLSCCSNCGYGCEGGYPINAWKYLVKSGFCTGGSYEAQFGCKPYSLAPCGETVGNVTWPSCPDDGYDTPACVNKCTNKNYNVAYTADKHFGSTAYAVGKKVSQIQAEIIAHGPVEAAFTVYEDFYQYKTGVYVHTTGQELGGHAIRILGWGTDNGTPYWLVANSWNVNWGENGYFRIIRGTNECGIEHAVVGGVPKV
Regarding B3, the “Germ cell corpses” value in data set [3] is “failed to do so”. Also, the “Embryonic lethality” value in the data set with N2 animals is listed as “failed to do so”. The “Protease activity of recombinant protein” value in data set [4] is reported as “abolished the protease activity”.

The values above are taken from patent US11452709B2, “Compositions and methods for preventing and treating radiation-induced bystander effects caused by radiation or radiotherapy” (The Regents of the University of Colorado, priority 2017, dated 2022).
